Experimental data as given in patent US12286442B2, “Methods and materials for increasing transcription factor eb polypeptide levels” (University of Pittsburgh—Of the Commonwealth System of …, priority 2019, dated 2025).

Experiments:
TFEB = test: High content screen measuring TFEB nuclear accumulation (TFEB nuclear/cytosol ratio) in BEAS-2B cells stably expressing TFEB-EGFP; assay type: cell-based, human; details: 18 hours incubation
Procedure, shortened: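 BEAS-2B cells stably expressing TFEB-EGFP (~2300–2500 per well) pre-incubated 8 hours, then exposed to serially diluted compounds (DMEM low glucose, 2% FBS) for 18 hours, PFA-fixed and DAPI-stained. Imaged nuclear (DAPI mask) vs cytosolic (expanded mask) TFEB-GFP; activity = minimal concentration raising nuclear/cytosol ratio by 25%.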

BEAS-2B cells = test: Toxicity: compound concentration needed to induce greater than 50 percent of cell loss; assay type: cell-based, human; details: 18 hours incubation
Procedure, shortened: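 BEAS-2B cells stably expressing TFEB-EGFP treated with serial compound dilutions for 18 h, then PFA-fixed, DAPI-stained and imaged. Toxicity scored as the concentration causing >50% cell loss, binned as ≥25 μM, <25 and >1 μM, or ≤1 μM ("+++").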

SMILES | efficacy (minimal compound concentration needed to increase TFEB nuclear/cytosol ratio by 25%) (TFEB) | toxicity (compound concentration needed to induce greater than 50 percent of cell loss) (BEAS-2B cells)
c1ccc2c(Nc3ccc4nccnc4c3)nc(-c3ccncc3)nc2c1 [Compound 103] | +++ (“+++” equals ≤1 μM) | + (cell loss of greater than 50 percent at a concentration that equals or is greater than 25 μM was represented as)
Fc1cc(-c2nc(Nc3ccc4[nH]ncc4c3)c3ccccc3n2)ccn1 [Compound 47] | +++ (“+++” equals ≤1 μM) | +++ (cell loss of greater than 50 percent at a concentration that equals or is less than 1 μM was represented as “+++.”)
c1cnc2nc(-c3ccncc3)nc(Nc3ccc4nc(C5CC5)sc4c3)c2c1 [Compound 131] | +++ (“+++” equals ≤1 μM) | + (cell loss of greater than 50 percent at a concentration that equals or is greater than 25 μM was represented as)
Cc1nc2ccc(Nc3nc(-c4ccncc4)nc4ncccc34)cc2o1 [Compound 146] | +++ (“+++” equals ≤1 μM) | + (cell loss of greater than 50 percent at a concentration that equals or is greater than 25 μM was represented as)
Cc1nc2ccc(Nc3nc(-c4ccncc4)nc4c(F)cccc34)cc2s1 [Compound 381] | +++ (“+++” equals ≤1 μM) | + (cell loss of greater than 50 percent at a concentration that equals or is greater than 25 μM was represented as)
c1ccc2c(Nc3ccc4scnc4c3)nc(-c3ccncc3)nc2c1 [Compound 27] | +++ (“+++” equals ≤1 μM) | + (cell loss of greater than 50 percent at a concentration that equals or is greater than 25 μM was represented as)
c1ccc2c(Nc3ccc4ncncc4c3)nc(-c3ccncc3)nc2c1 [Compound 102] | +++ (“+++” equals ≤1 μM) | + (cell loss of greater than 50 percent at a concentration that equals or is greater than 25 μM was represented as)
CC(C)c1nc2ccc(Nc3nc(-c4ccncc4)cc4ncccc34)cc2s1 [Compound 240] | +++ (“+++” equals ≤1 μM) | + (cell loss of greater than 50 percent at a concentration that equals or is greater than 25 μM was represented as)
Fc1cc(Nc2nc(-c3cncs3)nc3ncccc23)cc2cc[nH]c12 [Compound 396] | +++ (“+++” equals ≤1 μM) | + (cell loss of greater than 50 percent at a concentration that equals or is greater than 25 μM was represented as)
CCc1nc2ccc(Nc3nc(-c4ccncc4)nc4cc(OC)ccc34)cc2s1 [Compound 150] | +++ (“+++” equals ≤1 μM) | ++ (cell loss of greater than 50 percent at a concentration less than 25 μM and greater than 1 μM was represented as)
Fc1ccc2nc(-c3ccncc3)nc(Nc3ccc4[nH]ccc4c3)c2c1 [Compound 110] | +++ (“+++” equals ≤1 μM) | + (cell loss of greater than 50 percent at a concentration that equals or is greater than 25 μM was represented as)
Nc1ccc(Nc2nc(-c3ccncc3)nc3ccccc23)cc1 [Compound 56] | ++ (“++” equals between ≤25 μM and >1 μM) | + (cell loss of greater than 50 percent at a concentration that equals or is greater than 25 μM was represented as)
